Assay results published in ChEMBL document CHEMBL4477239 (Bioorg Med Chem, 2016).

What was measured:
[1] = target: Tyrosine-protein kinase receptor UFO (Homo sapiens, UniProt P30530); experiment: Inhibition of human AXL
[2] = target: Proto-oncogene tyrosine-protein kinase receptor Ret (Homo sapiens, UniProt P07949); experiment: Inhibition of human RET
[3] = target: T1, Cytochrome P450 3A4 (Homo sapiens, UniProt P08684); experiment: Time-dependent inhibition of CYP3A4 in human liver microsomes at 10 uM using troleandomycin as […] preincubated with compound followed by NADPH addition by LC-MS/MS analysis; assay type: ADME
T1 sequence (P08684 whole entry): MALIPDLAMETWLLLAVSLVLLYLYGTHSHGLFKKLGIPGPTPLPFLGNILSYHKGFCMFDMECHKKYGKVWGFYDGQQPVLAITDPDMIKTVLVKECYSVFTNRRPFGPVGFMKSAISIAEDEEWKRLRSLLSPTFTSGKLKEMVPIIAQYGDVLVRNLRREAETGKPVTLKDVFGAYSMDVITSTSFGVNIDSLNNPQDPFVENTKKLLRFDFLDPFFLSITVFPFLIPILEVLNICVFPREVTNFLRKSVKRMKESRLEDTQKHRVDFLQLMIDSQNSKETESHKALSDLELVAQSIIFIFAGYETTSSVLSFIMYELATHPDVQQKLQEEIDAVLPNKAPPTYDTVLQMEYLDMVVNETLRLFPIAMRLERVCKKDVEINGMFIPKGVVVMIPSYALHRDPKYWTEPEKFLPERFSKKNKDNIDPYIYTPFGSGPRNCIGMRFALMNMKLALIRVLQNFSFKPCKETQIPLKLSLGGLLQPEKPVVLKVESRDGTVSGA

[4] = Intrinsic clearance in human liver microsomes assessed per mg of protein at 1 uM preincubated for 5 mins followed by NADPH addition measured after 5 to 30 mins by LC-MS/MS analysis; assay type: ADME, Microsome; details: read-out: CLH
[5] = target: Platelet-derived growth factor receptor beta (Homo sapiens, UniProt P09619); experiment: Inhibition of human PDGFRbeta
[6] = target: Ephrin type-A receptor 2 (Homo sapiens, UniProt P29317); experiment: Inhibition of human EPHA2
[7] = target: Cytochrome P450 2C9 (Homo sapiens, UniProt P11712); experiment: Inhibition of CYP2C9 in human liver microsomes at 10 uM using sulfaphenazole as […] preincubated for 5 mins followed by NADPH addition measured after 20 mins by LC-MS/MS analysis; assay type: ADME
Sequence of Cytochrome P450 2C9 (P11712 whole entry): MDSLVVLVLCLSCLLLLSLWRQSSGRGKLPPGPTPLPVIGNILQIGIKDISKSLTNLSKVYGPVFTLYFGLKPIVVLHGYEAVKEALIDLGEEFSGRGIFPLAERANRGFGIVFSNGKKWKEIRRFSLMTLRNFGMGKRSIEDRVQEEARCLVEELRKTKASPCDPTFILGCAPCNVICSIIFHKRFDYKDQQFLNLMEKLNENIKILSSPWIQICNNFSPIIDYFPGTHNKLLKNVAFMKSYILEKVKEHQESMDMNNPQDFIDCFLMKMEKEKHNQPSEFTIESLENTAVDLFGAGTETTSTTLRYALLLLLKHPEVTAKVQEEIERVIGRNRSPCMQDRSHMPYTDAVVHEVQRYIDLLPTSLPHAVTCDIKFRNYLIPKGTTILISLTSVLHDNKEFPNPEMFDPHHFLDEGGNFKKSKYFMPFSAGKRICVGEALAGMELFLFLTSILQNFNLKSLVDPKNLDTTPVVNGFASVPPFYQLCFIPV

[8] = target: Epidermal growth factor receptor (Homo sapiens, UniProt P00533); experiment: Inhibition of human EGFR
[9] = target: Macrophage-stimulating protein receptor (Homo sapiens, UniProt Q04912); experiment: Inhibition of human RON
[10] = target: T2, Cytochrome P450 2D6 (Homo sapiens, UniProt P10635); experiment: Time-dependent inhibition of CYP2D6 in human liver microsomes at 10 uM using paroxetine as […] preincubated with compound followed by NADPH addition by LC-MS/MS analysis; assay type: ADME
T2 sequence (P10635 whole entry): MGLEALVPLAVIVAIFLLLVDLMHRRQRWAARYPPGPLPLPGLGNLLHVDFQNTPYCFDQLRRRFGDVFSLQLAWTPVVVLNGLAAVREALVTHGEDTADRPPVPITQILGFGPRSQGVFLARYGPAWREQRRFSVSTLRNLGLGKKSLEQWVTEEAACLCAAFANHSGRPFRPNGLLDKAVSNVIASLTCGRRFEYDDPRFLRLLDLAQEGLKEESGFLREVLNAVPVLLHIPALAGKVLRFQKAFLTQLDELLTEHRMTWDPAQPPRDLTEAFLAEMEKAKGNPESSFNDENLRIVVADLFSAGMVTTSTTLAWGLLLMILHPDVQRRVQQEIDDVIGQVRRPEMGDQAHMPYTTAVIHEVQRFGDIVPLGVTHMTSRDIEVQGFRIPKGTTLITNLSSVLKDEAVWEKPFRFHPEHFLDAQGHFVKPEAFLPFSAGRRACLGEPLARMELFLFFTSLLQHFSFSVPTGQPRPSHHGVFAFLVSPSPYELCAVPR

[11] = target: Epidermal growth factor receptor (Homo sapiens, UniProt P00533, T790M); experiment: Inhibition of human EGFR T790M mutant
[12] = target: Platelet-derived growth factor receptor alpha (Homo sapiens, UniProt P16234); experiment: Inhibition of human PDGFRalpha
Sequence of Platelet-derived growth factor receptor alpha (P16234 whole entry): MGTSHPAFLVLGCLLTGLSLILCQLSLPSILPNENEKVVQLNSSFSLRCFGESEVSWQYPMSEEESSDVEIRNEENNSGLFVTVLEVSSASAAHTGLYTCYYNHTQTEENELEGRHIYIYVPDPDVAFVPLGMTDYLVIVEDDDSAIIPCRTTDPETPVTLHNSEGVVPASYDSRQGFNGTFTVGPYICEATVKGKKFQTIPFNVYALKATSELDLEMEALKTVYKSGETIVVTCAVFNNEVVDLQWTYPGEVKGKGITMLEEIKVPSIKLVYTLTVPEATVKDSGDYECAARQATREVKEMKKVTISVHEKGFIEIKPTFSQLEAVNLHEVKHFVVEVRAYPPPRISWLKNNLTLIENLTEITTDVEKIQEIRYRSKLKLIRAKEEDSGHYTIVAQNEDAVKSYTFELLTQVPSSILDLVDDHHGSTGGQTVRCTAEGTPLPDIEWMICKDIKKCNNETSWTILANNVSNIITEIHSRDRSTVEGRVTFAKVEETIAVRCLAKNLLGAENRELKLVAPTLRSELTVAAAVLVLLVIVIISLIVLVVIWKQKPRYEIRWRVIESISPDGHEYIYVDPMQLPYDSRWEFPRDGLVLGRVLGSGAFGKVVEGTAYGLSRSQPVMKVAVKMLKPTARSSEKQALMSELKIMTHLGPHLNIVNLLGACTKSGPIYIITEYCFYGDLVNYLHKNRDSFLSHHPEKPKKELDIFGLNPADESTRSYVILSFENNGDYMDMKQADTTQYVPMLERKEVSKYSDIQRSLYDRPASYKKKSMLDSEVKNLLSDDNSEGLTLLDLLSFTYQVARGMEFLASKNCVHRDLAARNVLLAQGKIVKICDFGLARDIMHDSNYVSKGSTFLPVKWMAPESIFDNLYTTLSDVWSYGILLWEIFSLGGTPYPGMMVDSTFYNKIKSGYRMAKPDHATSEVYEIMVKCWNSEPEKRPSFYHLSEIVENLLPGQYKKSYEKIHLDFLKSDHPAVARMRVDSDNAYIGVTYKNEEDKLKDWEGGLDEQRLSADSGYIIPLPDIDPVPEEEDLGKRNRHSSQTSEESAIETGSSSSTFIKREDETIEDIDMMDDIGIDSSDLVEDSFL

[13] = Apparent permeability from basolateral to apical side in Caco2 cells at 1 to 10 uM incubated for 90 mins by LC-MS/MS analysis; assay type: ADME, cell-based; details: human, Caco-2
[14] = target: Receptor tyrosine-protein kinase erbB-4 (Homo sapiens, UniProt Q15303); experiment: Inhibition of human ERBB4
[15] = target: Fibroblast growth factor receptor 1 (Homo sapiens, UniProt P11362); experiment: Inhibition of human FGFR1
[16] = target: Proto-oncogene tyrosine-protein kinase Src (Homo sapiens, UniProt P12931); experiment: Inhibition of human c- SRC
Sequence of Proto-oncogene tyrosine-protein kinase Src (P12931 2-536 limits assumed): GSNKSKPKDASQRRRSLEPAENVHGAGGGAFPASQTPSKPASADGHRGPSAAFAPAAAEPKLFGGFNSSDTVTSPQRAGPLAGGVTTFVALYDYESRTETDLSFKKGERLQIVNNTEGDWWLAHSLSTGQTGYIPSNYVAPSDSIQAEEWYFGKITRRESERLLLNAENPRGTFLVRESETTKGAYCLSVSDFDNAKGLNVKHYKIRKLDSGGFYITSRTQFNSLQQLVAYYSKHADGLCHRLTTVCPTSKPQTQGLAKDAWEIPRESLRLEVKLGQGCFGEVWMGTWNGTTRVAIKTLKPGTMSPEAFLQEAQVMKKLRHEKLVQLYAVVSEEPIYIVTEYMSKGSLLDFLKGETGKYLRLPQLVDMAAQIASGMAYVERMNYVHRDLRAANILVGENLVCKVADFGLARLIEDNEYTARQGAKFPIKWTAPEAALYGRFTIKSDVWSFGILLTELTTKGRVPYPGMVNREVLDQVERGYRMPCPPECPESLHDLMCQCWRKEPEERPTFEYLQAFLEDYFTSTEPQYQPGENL

[17] = target: Mast/stem cell growth factor receptor Kit (Homo sapiens, UniProt P10721); experiment: Inhibition of human c-Kit
[18] = target: Ephrin type-B receptor 2 (Homo sapiens, UniProt P29323); experiment: Inhibition of human EPHB2
[19] = target: Vascular endothelial growth factor receptor 1 (Homo sapiens, UniProt P17948); experiment: Inhibition of human FLT1
[20] = system: NCI-H1993; experiment: Cytotoxicity against human NCI-H1993 cells assessed as growth inhibition after 72 hrs by CCK-8 assay; details: NCI-H1993, 72 h
[21] = in vitro; details: human, Caco-2
Description: Apparent permeability from apical to basolateral side in Caco2 cells at 1 to 10 uM incubated for 90 mins by LC-MS/MS analysis

[22] = target: ALK tyrosine kinase receptor (Homo sapiens, UniProt Q9UM73); experiment: Inhibition of human ALK
[23] = target: Hepatocyte growth factor receptor (Homo sapiens, UniProt P08581)
Sequence of Hepatocyte growth factor receptor (P08581 whole entry): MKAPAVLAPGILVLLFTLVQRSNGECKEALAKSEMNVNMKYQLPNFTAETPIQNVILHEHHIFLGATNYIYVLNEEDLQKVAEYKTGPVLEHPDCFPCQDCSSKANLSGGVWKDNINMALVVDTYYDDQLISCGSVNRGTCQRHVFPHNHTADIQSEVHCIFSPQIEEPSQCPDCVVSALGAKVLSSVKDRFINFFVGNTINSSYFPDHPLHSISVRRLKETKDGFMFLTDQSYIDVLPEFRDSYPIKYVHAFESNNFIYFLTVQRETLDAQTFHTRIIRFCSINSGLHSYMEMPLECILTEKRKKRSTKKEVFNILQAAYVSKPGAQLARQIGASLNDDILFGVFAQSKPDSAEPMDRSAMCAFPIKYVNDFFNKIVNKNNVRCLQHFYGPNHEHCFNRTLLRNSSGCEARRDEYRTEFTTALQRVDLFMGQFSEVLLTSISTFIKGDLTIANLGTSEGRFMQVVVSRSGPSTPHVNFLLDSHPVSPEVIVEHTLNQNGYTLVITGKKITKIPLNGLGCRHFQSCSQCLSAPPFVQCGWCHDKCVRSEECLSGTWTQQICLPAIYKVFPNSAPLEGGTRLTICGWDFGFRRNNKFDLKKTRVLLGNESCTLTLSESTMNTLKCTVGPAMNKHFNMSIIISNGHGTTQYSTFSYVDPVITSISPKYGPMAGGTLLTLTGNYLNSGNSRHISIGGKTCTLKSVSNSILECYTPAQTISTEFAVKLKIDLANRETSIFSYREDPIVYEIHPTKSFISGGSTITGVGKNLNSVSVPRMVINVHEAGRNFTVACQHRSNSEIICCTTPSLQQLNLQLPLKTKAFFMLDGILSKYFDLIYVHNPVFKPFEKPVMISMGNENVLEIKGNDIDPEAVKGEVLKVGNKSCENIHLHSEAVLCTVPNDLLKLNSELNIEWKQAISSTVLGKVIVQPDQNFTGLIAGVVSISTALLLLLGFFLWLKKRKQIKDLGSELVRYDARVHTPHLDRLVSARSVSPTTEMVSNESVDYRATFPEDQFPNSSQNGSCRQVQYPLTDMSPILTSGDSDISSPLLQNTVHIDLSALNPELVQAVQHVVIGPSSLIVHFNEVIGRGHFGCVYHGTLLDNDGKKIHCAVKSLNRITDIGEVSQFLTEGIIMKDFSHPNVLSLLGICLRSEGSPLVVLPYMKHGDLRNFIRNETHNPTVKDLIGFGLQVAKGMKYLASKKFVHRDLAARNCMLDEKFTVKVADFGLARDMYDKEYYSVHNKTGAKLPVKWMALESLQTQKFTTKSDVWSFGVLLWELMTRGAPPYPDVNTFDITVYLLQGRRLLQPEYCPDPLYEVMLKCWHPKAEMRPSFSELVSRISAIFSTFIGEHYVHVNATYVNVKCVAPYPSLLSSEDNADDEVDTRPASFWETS
Description: Inhibition of c-Met kinase (unknown origin) assessed as decrease in phosphorylation of TK substrate-biotin peptide preincubated for 5 to 10 mins followed by ATP addition measured after 30 mins by HTRF assay

[24] = target: Vascular endothelial growth factor receptor 2 (Homo sapiens, UniProt P35968); experiment: Inhibition of human VEGFR2
[25] = Efflux ratio of permeability from basolateral to apical side over apical to basolateral side in Caco2 cells at 1 to 10 uM incubated for 90 mins by LC-MS/MS analysis; assay type: ADME, cell-based; details: human, Caco-2
[26] = Intrinsic clearance in rat liver microsomes assessed per mg of protein at 1 uM preincubated for 5 mins followed by NADPH addition measured after 5 to 30 mins by LC-MS/MS analysis; assay type: ADME, Microsome; details: read-out: CLH
[27] = target: Tyrosine-protein kinase ABL1 (Homo sapiens, UniProt P00519); experiment: Inhibition of human ABL
[28] = target: T3, Cytochrome P450 1A2 (Homo sapiens, UniProt P05177); experiment: Time-dependent inhibition of CYP1A2 in human liver microsomes at 10 uM using furafylline as […] preincubated with compound followed by NADPH addition by LC-MS/MS analysis; assay type: ADME
T3 sequence (P05177 whole entry): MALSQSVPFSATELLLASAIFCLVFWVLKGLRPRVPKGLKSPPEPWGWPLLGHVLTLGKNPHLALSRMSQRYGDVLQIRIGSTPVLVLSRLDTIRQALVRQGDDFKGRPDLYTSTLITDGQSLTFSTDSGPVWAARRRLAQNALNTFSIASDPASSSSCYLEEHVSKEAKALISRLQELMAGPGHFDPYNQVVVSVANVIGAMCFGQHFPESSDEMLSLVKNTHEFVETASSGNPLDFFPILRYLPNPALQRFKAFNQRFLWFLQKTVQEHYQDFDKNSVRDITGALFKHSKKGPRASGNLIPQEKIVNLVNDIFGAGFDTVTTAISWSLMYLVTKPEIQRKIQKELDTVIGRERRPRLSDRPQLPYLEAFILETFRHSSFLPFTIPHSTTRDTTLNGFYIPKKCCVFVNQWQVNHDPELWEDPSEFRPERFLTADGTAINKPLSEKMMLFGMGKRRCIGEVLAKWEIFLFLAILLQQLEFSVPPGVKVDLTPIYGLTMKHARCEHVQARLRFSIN

[29] = target: Insulin-like growth factor 1 receptor (Homo sapiens, UniProt P08069); experiment: Inhibition of human IGF1R
[30] = target: T3, Cytochrome P450 1A2; experiment: Inhibition of CYP1A2 in human liver microsomes at 10 uM using naphthoflavone as […] preincubated for 5 mins followed by NADPH addition measured after 20 mins by LC-MS/MS analysis; assay type: ADME
[31] = target: Cytochrome P450 2C19 (Homo sapiens, UniProt P33261); experiment: Inhibition of CYP2C19 in human liver microsomes at 10 uM using tranylcypromine as […] preincubated for 5 mins followed by NADPH addition measured after 20 mins by LC-MS/MS analysis; assay type: ADME
Sequence of Cytochrome P450 2C19 (P33261 whole entry): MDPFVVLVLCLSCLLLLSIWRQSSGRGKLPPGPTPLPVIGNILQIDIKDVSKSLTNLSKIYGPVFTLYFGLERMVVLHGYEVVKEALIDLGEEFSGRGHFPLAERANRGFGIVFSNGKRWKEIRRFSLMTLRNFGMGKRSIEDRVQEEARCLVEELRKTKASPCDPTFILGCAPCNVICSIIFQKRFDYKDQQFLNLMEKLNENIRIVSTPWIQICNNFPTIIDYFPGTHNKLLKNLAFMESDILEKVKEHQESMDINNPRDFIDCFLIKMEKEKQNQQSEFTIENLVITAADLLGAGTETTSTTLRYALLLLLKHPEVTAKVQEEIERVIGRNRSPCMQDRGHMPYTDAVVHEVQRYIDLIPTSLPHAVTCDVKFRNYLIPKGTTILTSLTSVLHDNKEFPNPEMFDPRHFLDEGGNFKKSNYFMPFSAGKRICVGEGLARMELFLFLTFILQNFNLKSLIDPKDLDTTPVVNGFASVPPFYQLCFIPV

[32] = target: T1, Cytochrome P450 3A4; experiment: Inhibition of CYP3A4 in human liver microsomes at 10 uM using ketoconazole as […] preincubated for 5 mins followed by NADPH addition measured after 20 mins by LC-MS/MS analysis; assay type: ADME
[33] = target: T2, Cytochrome P450 2D6; experiment: Inhibition of CYP2D6 in human liver microsomes at 10 uM using quinidine as […] preincubated for 5 mins followed by NADPH addition measured after 20 mins by LC-MS/MS analysis; assay type: ADME

| SMILES | inhibition (INH) [3] | microsomal CLint at 1 µM [4] | inhibition (INH) [7] | inhibition (INH) [10] | Papp B→A at 1.5 h [13] | IC50 [20] | Papp A→B at 1.5 h, 10 µM [21] | IC50 [23] | efflux ratio at 1.5 h [25] | microsomal CLint at 1 µM [26] | inhibition (INH) [28] | inhibition (INH) [31] | inhibition (INH) [32] | inhibition (INH) [33] | also measured |
| --- | --- | --- | --- | --- | --- | --- | --- | --- | --- | --- | --- | --- | --- | --- | --- |
| C[C@@H](c1cc2cccnc2cc1F)n1cnc2ncc(-c3cnn(C)c3)nc21 | Not Active | 8 µL/min/mg | Active | Not Active | 48.6 ×10⁻⁶ cm/s | 24.7 nM | 46.6 ×10⁻⁶ cm/s | 1.45 nM | 1.04 | 49 µL/min/mg | Not Active | – | – | – | IC50 [1]: > 30 µM; IC50 [2]: > 30 µM; IC50 [5]: 26.2 µM; IC50 [6]: > 30 µM; IC50 [8]: > 30 µM; IC50 [9]: > 30 µM; IC50 [11]: > 30 µM; IC50 [12]: 27.6 µM; IC50 [14]: > 30 µM; IC50 [15]: > 30 µM; IC50 [16]: > 30 µM; IC50 [17]: > 30 µM; IC50 [18]: > 30 µM; IC50 [19]: > 30 µM; IC50 [22]: > 30 µM; IC50 [24]: 20.6 µM; IC50 [27]: > 30 µM; IC50 [29]: > 30 µM |
| CC(c1cc2cccnc2cc1F)n1cnc2ncc(-c3cnn(C)c3)nc21 (stereo unspecified) | Not Active | 9 µL/min/mg | Not Active | Not Active | 40.1 ×10⁻⁶ cm/s | 31.3 nM | 39.3 ×10⁻⁶ cm/s | 1.6 nM | 1.02 | 18 µL/min/mg | Not Active | Not Active | Not Active | Not Active | inhibition (INH) [30]: Not Active |
| CNC(=O)c1ccc(-c2cnc3ncn(C(C)c4cc5cccnc5cc4F)c3n2)cc1F (stereo unspecified) | Active | 16 µL/min/mg | Active | – | 39.5 ×10⁻⁶ cm/s | 32.7 nM | 39.8 ×10⁻⁶ cm/s | 2.3 nM | 0.99 | 85 µL/min/mg | – | Active | Active | Active | – |
